The target in series [1] is T1, Receptor-type tyrosine-protein kinase FLT3 (Homo sapiens, UniProt P36888).
T1 sequence (P36888 whole entry): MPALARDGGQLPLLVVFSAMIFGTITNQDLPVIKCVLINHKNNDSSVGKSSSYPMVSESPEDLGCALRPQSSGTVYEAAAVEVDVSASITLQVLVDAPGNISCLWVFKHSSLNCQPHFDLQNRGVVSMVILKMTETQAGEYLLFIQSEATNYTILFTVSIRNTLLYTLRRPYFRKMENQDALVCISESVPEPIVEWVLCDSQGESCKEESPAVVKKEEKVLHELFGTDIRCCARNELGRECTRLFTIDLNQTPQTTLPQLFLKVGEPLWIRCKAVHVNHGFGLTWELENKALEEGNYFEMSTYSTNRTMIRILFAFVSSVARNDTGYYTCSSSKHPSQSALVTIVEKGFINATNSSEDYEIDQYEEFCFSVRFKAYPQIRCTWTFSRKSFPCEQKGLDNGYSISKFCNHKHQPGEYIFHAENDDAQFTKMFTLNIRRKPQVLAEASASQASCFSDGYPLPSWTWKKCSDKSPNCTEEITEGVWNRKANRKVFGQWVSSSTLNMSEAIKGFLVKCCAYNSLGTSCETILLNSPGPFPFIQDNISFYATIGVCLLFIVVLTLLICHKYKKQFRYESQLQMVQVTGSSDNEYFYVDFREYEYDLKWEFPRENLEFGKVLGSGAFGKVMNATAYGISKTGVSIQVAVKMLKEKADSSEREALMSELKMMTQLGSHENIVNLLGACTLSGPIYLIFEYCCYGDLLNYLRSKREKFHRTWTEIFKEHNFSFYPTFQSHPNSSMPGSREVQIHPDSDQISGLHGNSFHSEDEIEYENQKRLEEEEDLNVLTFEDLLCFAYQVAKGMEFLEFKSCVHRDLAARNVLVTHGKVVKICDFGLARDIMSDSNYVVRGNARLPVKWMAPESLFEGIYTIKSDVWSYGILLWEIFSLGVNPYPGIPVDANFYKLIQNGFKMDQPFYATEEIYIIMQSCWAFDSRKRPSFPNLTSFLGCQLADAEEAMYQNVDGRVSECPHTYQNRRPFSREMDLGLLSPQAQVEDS
Description: Inhibition of FLAG-tagged FLT3 (unknown origin) transfected in Cos-7 cells assessed as phosphorylation level incubated for 1 hr by ELISA. Type of series: cell-based.

Series [2] has as its target T2, Tyrosine-protein kinase Mer (Homo sapiens, UniProt Q12866).
T2 sequence (Q12866 whole entry): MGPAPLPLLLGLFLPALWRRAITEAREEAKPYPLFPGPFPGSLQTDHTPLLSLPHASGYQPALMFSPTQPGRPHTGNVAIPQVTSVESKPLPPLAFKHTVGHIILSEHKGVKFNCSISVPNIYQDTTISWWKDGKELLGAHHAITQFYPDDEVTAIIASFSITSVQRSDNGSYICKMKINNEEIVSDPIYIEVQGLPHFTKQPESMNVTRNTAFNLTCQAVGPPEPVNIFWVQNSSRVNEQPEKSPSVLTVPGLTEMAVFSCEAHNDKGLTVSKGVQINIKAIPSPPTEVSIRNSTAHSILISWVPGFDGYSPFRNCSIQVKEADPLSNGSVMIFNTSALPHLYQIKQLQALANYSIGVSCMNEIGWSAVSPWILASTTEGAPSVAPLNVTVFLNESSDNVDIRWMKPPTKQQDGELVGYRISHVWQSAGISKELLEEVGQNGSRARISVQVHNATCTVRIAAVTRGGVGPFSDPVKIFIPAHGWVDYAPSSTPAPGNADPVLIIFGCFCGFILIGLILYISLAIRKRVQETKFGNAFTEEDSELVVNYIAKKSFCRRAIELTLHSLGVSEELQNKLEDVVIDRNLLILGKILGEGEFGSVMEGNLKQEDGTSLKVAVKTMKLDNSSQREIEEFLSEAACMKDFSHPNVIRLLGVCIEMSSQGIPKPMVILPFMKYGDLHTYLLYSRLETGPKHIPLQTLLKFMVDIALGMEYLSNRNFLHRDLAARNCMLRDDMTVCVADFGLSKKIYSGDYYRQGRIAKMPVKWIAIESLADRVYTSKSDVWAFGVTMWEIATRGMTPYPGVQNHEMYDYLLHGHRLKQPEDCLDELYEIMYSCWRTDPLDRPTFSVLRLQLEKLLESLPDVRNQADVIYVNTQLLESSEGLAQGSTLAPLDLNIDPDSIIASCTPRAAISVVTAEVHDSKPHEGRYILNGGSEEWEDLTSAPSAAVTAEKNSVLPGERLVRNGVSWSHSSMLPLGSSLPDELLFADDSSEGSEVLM
Description: Inhibition of MER (unknown origin) by LC-MS analysis.

Series [3] deals with T3, Tyrosine-protein kinase receptor UFO (Homo sapiens, UniProt P30530).
T3 sequence (P30530 whole entry): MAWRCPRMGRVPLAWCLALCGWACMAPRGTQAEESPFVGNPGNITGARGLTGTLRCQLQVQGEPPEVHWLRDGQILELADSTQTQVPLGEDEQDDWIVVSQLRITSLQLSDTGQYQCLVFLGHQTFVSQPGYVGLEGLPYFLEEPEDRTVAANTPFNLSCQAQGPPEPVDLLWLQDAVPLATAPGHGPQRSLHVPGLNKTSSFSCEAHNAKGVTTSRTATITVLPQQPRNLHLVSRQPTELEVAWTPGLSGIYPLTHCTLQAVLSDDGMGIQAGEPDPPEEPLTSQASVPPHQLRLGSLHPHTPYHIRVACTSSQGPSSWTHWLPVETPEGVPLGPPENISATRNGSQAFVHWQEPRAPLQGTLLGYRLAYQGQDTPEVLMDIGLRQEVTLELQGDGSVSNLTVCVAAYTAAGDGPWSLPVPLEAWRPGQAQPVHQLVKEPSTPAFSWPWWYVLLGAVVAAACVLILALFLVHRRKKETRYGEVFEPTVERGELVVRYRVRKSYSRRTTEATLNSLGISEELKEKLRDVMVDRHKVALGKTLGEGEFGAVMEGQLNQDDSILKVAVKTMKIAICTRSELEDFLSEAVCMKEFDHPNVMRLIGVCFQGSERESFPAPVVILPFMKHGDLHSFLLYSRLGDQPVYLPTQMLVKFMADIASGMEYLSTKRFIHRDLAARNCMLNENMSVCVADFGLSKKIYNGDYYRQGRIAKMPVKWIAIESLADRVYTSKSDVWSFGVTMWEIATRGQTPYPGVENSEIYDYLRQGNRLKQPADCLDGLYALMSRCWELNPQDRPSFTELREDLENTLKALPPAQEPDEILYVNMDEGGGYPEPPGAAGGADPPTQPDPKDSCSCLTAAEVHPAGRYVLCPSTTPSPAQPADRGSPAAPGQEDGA
Description: Inhibition of FLAG-tagged AXL (unknown origin) transfected in Cos-7 cells assessed as phosphorylation level incubated for 1 hr by ELISA. Type of series: cell-based. For orientation: In an ELISA, binding on a coated surface is turned into a signal by an enzyme label.

Series [4] is described as follows: Lipophilicity, log D of the compound at pH 7.4. The class given is physicochemical. As to conditions: buffer.
The target in series [5] is T1, Receptor-type tyrosine-protein kinase FLT3. Description: Inhibition of FLT3 (unknown origin) by LC-MS analysis.
Series [6] deals with T3, Tyrosine-protein kinase receptor UFO. Description: Inhibition of AXL (unknown origin) by LC-MS analysis.

These results are taken from ChEMBL document CHEMBL4825753 (J Med Chem, 2021).

What is called IC50 is the concentration needed to halve the response being measured. For orientation: logD means lipophilicity at a set pH, counting ionised and neutral species. Low values mean a more hydrophilic compound, high ones a more lipophilic compound. Turning to `Cc1cc(-c2c(C)nc(C)n2C)ccc1-c1nnc(N(C)Cc2ccc3nccn3c2)o1`, the IC50 is > 50.1 µM in series [1]; 0.0398 µM in series [2]; 5.01 µM in series [3]; 39.8 µM in series [5]; 3.98 µM in series [6]. Further, in series [4], the logD was 2.6.

Turning to `Cc1cc(-c2c(C)n[nH]c2C)ccc1-c1nnc(N(C)Cc2ccc3nccn3c2)o1`, the concentration for half-maximal inhibition (IC50) in series [1] is 7.94 µM; in series [2] it was 0.0398 µM; in series [3], 15.8 µM; in series [5], 39.8 µM; in series [6], 5.01 µM. This compound also registered a logD in series [4] of 3.8.

For the compound `Cc1ncccc1-c1ccc(-c2nnc(N(C)Cc3ccc4nccn4c3)o2)cc1`, the results for the IC50 in series [2], in series [5] and in series [6] were 0.0501 µM, 20 µM and 6.31 µM, respectively. Also, in series [4], the log distribution coefficient (logD) is 3.1.

For the compound `Cc1nn(C)c(C)c1-c1ccc(-c2nnc(N(C)Cc3ccc4nccn4c3)o2)c(F)c1`, the IC50 is > 31.6 µM in series [1]; 0.0126 µM in series [2]; 3.16 µM in series [3]; > 100 µM in series [5]; 1.26 µM in series [6]. Besides, in series [4], the log distribution coefficient (logD) turned out to be 3.2.

As to `COc1cc(-c2c(C)nn(C)c2C)ccc1-c1nnc(N(C)Cc2ccc3nccn3c2)o1`, the 50% inhibitory concentration (IC50) in series [1] was > 31.6 µM; in series [2], 0.0158 µM; in series [3], 2 µM; in series [5], 39.8 µM; in series [6], 0.794 µM. In series [4], this compound yielded a logD of 2.9.

With `CN(Cc1ccc2nccn2c1)c1nnc(-c2ccc(C3CC3)cc2)o1`, the half-inhibitory concentration (IC50) in series [2] was 0.794 µM; in series [5], 25.1 µM; in series [6] it was 20 µM. The logD in series [4] turned out to be 3.5.

On to `Cc1cc(-c2cnn(C)c2C)ccc1-c1nnc(N(C)Cc2ccc3nccn3c2)o1`, for which the IC50 in series [1] was > 31.6 µM; in series [2], 0.002 µM; in series [3], 0.794 µM; in series [5], 63.1 µM; in series [6], 0.1 µM. Also, the logD in series [4] was found to be 3.4.

Consider `Cc1cc(-c2c(C#N)nn(C)c2C)ccc1-c1nnc(N(C)Cc2ccc3nccn3c2)o1`, for which the IC50 in series [2] is 0.0316 µM; in series [3], 6.31 µM; in series [5] it was 25.1 µM; in series [6], 6.31 µM. Besides, in series [4], the pH-dependent lipophilicity (logD) turned out to be 3.4.

Take `Cc1noc(C)c1-c1ccc(-c2nnc(N(C)Cc3ccc4nccn4c3)o2)cc1`: the figures for the IC50 in series [2], in series [5] and in series [6] were 0.2 µM, 39.8 µM and 31.6 µM, respectively. The same compound gave a log distribution coefficient (logD) in series [4] of 3.1.

For the compound `CN(Cc1ccc2nccn2c1)c1nnc(-c2ccc(-c3ccccc3)cc2)o1`, the IC50 in series [2] is 0.0398 µM; in series [5] it was 25.1 µM; in series [6] it was 3.16 µM. In series [4], the logD came out at 3.9.

As for `CN(Cc1ccc2nccn2c1)c1nnc(-c2ccc(-c3ccccc3C#N)cc2)o1`, the IC50 was 0.0251 µM in series [2], 10 µM in series [5] and 3.98 µM in series [6]. The pH-dependent lipophilicity (logD) in series [4] turned out to be 3.6.

Turning to `CN(Cc1ccc2nccn2c1)c1nnc(-c2ccccc2)o1`, the IC50 in series [2] is 15.8 µM; in series [5], > 100 µM; in series [6], > 100 µM. Besides, the logD in series [4] stood at 2.4.

With `Cc1nn(C)c(C)c1-c1ccc(-c2nnc(N(C)Cc3ccc4nccn4c3)o2)cc1`, the IC50 in series [2] is 0.0316 µM; in series [3], 3.16 µM; in series [5] it was > 63.1 µM; in series [6] it was 1.26 µM. The log distribution coefficient (logD) in series [4] is 3.1.

In the case of `COc1ccccc1-c1ccc(-c2nnc(N(C)Cc3ccc4nccn4c3)o2)cc1`, the IC50 in series [2] is 0.0316 µM; in series [5] it was 50.1 µM; in series [6], 1.58 µM. In series [4], this compound gave a logD of 4.1.

As to `CN(Cc1ccc2nccn2c1)c1nnc(-c2ccc(-c3ccccc3F)cc2)o1`, the IC50 was 0.0158 µM in series [2], 50.1 µM in series [5] and 1.58 µM in series [6]. Also, the pH-dependent lipophilicity (logD) in series [4] turned out to be 4.4.

With `Cc1ccccc1-c1ccc(-c2nnc(N(C)Cc3ccc4nccn4c3)o2)cc1`, the IC50 was 0.0126 µM in series [2], 1 µM in series [5] and 0.631 µM in series [6]. The pH-dependent lipophilicity (logD) in series [4] is 4.7.
